Measurements: the supplement of paper PMC10307832

What was measured:
Test in all cases: relative viability (nuclei count vs DMSO), 5 days (fraction); higher = more cells survive
[1] = compound: CC1=CC=C(C=C1)C(=O)CN2C3=C(CCCC3)SC2=N [Pifithrin_alpha] + Cc1nc(Nc2ncc(C(=O)Nc3c(C)cccc3Cl)s2)cc(N2CCN(CCO)CC2)n1 [Dasatinib] (partner 0.075 µM)
How it was run: (§1)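 Values are medians from duplicate plates. Each reflects relative viability, defined as the nuclei count of treated wells over that of vehicle wells. Lung cancer cell lines in 1536-well plates were pin-tool dosed one day after seeding with one drug alone or with a fixed anchor-drug dose plus five library-drug doses (not always all listed) in √10 steps, then fixed, stained and imaged at 4× after 5 days.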

[2] = compound: CC1=CC=C(C=C1)C(=O)CN2C3=C(CCCC3)SC2=N [Pifithrin_alpha] + Nc1nc2[nH]cc(CCc3ccc(C(=O)N[C@@H](CCC(=O)O)C(=O)O)cc3)c2c(=O)[nH]1 [Pemetrexed] (partner 0.2 µM)
How it was run: as §1

Axitinib + Luminespib = compound: CNC(=O)c1ccccc1Sc1ccc2c(/C=C/c3ccccn3)n[nH]c2c1 [Axitinib] + CCNC(=O)c1noc(-c2cc(C(C)C)c(O)cc2O)c1-c1ccc(CN2CCOCC2)cc1 [Luminespib] (partner 0.01 µM)
How it was run: as §1

Axitinib + Pictilisib = compound: CNC(=O)c1ccccc1Sc1ccc2c(/C=C/c3ccccn3)n[nH]c2c1 [Axitinib] + CS(=O)(=O)N1CCN(Cc2cc3nc(-c4cccc5[nH]ncc45)nc(N4CCOCC4)c3s2)CC1 [Pictilisib] (partner 1 µM)
How it was run: as §1

NCI-H650
relative viability ([1]; first compound 3.162 µM): 0.489 | relative viability ([1]; first compound 10 µM): 0.441 | relative viability ([1]; first compound 31.62 µM): 0.415 | relative viability ([1]; first compound 100 µM): 0.388 | relative viability ([2]; first compound 3.162 µM): 0.938 | relative viability ([2]; first compound 10 µM): 0.967 | relative viability ([2]; first compound 31.62 µM): 0.831 | relative viability ([2]; first compound 100 µM): 0.789 | relative viability (Axitinib + Luminespib; first compound 0.005 µM): 0.798 | relative viability (Axitinib + Luminespib; first compound 0.01581 µM): 0.766 | relative viability (Axitinib + Luminespib; first compound 0.05 µM): 0.589 | relative viability (Axitinib + Luminespib; first compound 0.1581 µM): 0.764 | relative viability (Axitinib + Luminespib; first compound 0.5 µM): 0.822 | relative viability (Axitinib + Pictilisib; first compound 0.005 µM): 0.9 | relative viability (Axitinib + Pictilisib; first compound 0.01581 µM): 1.03 | relative viability (Axitinib + Pictilisib; first compound 0.05 µM): 0.764 | relative viability (Axitinib + Pictilisib; first compound 0.1581 µM): 0.945 | relative viability (Axitinib + Pictilisib; first compound 0.5 µM): 0.846
